From US11400084B2 (BioTheryX, Inc., priority 2018, dated 2022)

Key:
[1] = biological target: T1, CK1α (Homo sapiens, UniProt P48729+Q96SW2); test: Western blot CK1α degradation assay in MV-4-11 cells; type: cell-based; details: 6-8 hours
T1 construct: endogenous in cells; host or cells: MV-4-11
Description: (§1) MV-4-11 cells were grown in RPMI 1640 media supplemented with 10% fetal bovine serum, streptomycin and penicillin.
(§2) Cells were cultured at approximately 10^6 cells per mL and incubated in DMSO or the indicated compound for 6-8 hours. Whole cell extracts were prepared using RIPA buffer according to manufacturer's protocol (Pierce). Briefly, 3×10^6 cells were washed once in PBS, the cell pellets were resuspended in RIPA buffer and allowed to incubate for 15 minutes on ice. Cells debris was removed by centrifugation and the cleared whole cell lysates were transferred to new tubes for further analysis.
(§3) For Western blot analysis, whole cell protein extracts were separated on 4-12% SDS-polyacrylamide gels, transferred to nitrocellulose and probed with the indicated primary antibodies. Membranes were subsequently washed and probed with the appropriate IRDye secondary antibodies (LI-COR). The signal was detected using the Odyssey Imaging System (LI-COR).
(§4) The following antibodies were used in these studies: Anti-eRF3/GSPT1: Abcam, ab126090 (Cambridge, Mass.); Anti-Ikaros: Abcam, ab191394 (Cambridge, Mass.); Anti-CK1α: Abcam, ab108296 (Cambridge, Mass.); β-actin (8H10D10) mouse monoclonal antibody: Cell Signaling Technology, #3700 (Danvers, Mass.); IRDye 680RD Goat anti-rabbit antibody: LI-COR, 926-68071 (Lincoln, Nebr.); IRDye 800CW Goat anti-mouse antibody: LI-COR, 926-32210 (Lincoln, Nebr.).
(§5) In each of Tables 1-3, the % degradation values are reported as “A”, “B”, “C”, or “D.” “A” represents a % degradation value of less than 25% (value<25%); “B” represents a % degradation value of equal to or more than 25% and less than 50% (25%≤value<50%); “C” represents a % degradation value of equal to or more than 50% and less than 75% (50%≤value<75%); and “D” represents a % degradation value of equal to or more than 75% (value≥75%).

[2] = biological target: T2, IKAROS (Homo sapiens, UniProt Q13422+Q96SW2); test: Western blot IKAROS degradation assay in MV-4-11 cells; type: cell-based; details: 6-8 hours
T2 construct: endogenous in cells; host or cells: MV-4-11
T2 sequence (Q13422 whole entry): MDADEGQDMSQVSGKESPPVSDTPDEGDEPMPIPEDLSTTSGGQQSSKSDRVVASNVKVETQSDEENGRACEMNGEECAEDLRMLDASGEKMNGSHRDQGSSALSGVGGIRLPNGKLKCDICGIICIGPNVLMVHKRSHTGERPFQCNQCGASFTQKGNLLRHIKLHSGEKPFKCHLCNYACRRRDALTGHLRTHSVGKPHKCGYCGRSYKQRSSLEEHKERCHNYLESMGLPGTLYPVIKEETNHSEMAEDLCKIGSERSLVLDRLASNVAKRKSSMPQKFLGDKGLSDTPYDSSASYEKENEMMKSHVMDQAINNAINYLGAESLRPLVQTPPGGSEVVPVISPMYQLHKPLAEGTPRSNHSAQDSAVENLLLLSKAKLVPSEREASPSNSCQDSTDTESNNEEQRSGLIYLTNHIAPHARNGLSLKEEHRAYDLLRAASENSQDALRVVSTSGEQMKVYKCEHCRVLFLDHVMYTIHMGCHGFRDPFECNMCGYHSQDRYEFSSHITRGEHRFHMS
T2 sequence (Q96SW2 whole entry): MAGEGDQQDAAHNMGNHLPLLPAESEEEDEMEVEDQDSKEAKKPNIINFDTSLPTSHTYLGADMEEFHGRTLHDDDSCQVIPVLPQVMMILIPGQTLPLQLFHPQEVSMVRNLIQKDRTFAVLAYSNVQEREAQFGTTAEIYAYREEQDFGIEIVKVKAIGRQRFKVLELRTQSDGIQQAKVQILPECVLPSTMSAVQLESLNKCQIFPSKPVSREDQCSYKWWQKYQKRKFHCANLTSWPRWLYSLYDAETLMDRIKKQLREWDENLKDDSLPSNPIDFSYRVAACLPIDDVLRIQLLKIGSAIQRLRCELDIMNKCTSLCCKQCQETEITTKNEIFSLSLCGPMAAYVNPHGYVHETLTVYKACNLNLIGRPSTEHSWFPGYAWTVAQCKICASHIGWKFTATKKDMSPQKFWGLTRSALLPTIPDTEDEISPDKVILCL
T2 sequence (Q16531 whole entry partner): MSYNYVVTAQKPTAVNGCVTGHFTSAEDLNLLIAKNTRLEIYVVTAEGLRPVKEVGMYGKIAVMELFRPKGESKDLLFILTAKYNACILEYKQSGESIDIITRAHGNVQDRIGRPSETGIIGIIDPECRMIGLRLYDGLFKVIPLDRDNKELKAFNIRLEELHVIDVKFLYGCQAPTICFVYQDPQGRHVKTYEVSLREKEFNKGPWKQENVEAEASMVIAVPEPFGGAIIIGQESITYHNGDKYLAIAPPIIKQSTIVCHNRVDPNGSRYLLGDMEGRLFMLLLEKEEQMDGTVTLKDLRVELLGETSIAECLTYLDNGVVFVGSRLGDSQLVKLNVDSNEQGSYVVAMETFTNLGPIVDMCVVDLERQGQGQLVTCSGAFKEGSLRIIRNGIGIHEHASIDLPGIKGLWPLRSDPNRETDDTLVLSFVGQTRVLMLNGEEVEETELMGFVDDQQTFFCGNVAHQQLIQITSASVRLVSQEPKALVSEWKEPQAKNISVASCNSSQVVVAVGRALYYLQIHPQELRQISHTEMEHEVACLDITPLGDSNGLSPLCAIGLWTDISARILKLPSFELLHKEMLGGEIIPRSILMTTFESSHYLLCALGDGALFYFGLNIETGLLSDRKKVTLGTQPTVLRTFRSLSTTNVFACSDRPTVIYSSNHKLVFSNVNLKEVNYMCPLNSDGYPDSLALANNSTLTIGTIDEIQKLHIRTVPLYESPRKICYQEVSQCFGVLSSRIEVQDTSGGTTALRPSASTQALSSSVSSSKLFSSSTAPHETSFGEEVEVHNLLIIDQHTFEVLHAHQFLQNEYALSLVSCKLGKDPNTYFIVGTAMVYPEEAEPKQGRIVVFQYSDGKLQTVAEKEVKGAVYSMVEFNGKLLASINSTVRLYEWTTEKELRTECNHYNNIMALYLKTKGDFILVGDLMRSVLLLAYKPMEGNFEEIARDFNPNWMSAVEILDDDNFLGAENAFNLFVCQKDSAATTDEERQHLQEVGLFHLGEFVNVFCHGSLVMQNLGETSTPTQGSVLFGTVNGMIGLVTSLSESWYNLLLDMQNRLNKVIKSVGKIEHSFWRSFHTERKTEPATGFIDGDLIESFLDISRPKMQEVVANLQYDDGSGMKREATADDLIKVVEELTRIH
Description: as §1, §2, §3, §4, §5

[3] = test system: IL-2; test: IL-2 fold-change assay, anti-CD3 stimulated PBMCs, Mesoscale; type: cell-based; details: Homo sapiens, PBMC, 24 h, fold difference from the DMSO control
Description: For the IL-2 analysis, 96 well plates were precoated with 1 μg/mL anti-human CD3 antibody (OKT3, eBioscience Inc., San Diego, Calif.). After washing with PBS, the indicated compound was added (50 μL/well) followed by PBMCs diluted at 3-4 million cells/mL (150 μL/well). Plates were incubated for 24 h and the supernatants collected for Mesoscale IL-2 analysis. IL-2 activity is measured as fold difference from the DMSO control.
In Table 7, the fold-change values are reported as “A”, “B”, “C”, or “D”. “A” represents a fold-change value of equal to or less than 1 (value≤1); “B” represents a fold-change value of more than 1 and equal to or less than 2 (1<value≤2); “C” represents a fold-change value of more than 2 and equal to or less than 3 (2<value≤3); and “D” represents a fold-change value of more than 3 (value>3).

[4] = test system: IL-1β; test: IL-1β inhibition assay, LPS-induced PBMCs or CD14+ monocytes, Meso Scale; type: cell-based; details: 100 ng/mL LPS 18-24 h
Description: (§6) Either frozen primary blood mononuclear cells (PBMCs) or frozen CD14+ mobilized peripheral blood monocytes were purchased from AllCells (PB003F, Normal Peripheral Blood MNC (Alameda, Calif.)). Cells were quick thawed, washed 1-time with RPMI-1640 (10% FBS/1% Pen-Strep) and plated in 96 well plates at 200,000 cells per well. Cells were pretreated with DMSO only or with the indicated compound for 1 h and then induced with 100 ng/mL lipopolysaccharide (LPS) for 18-24 h. The supernatant was analyzed for IL-1β, IL-6, and TNFα, using Meso Scale assay according to manufacturer's protocol. The negative control wells were treated with DMSO.

[5] = test system: TNFα; test: TNF-α inhibition assay, LPS-induced PBMCs or CD14+ monocytes, Meso Scale; type: cell-based; details: 100 ng/mL LPS 18-24 h
Description: as §6

[6] = test system: MOLM-13 cells; test: MOLM-13 cell viability assay (CellTiter-Glo 2, 3 days, 2500 cells/well); type: cell-based; details: Homo sapiens, MOLM-13, 72 h, percentage of DMSO control
Description: MOLM-13 cells were cultured in RPMI 1640 media supplemented with 10% fetal bovine serum, streptomycin and penicillin, and were plated in white walled 96-well plates at 2500 cells/well. Cells were incubated in DMSO (control) or the indicated compound for 3 days at 37° C. and 5% CO2. Following the incubation period, 100 μL of CellTiterGlow2 (CTG2) reagent (CellTiter-Glo®2 Luminescent Cell Viability Assay, Promega (Madison, Wis.)) was added to each well. Following a 10 minutes incubation with shaking, luminescence was measured using the EnVision Multimode plate reader.
The MOLM-13 cell viability values, measured as percentages of the DMSO control, are reported in Table 8 as “A”, “B”, “C”, or “D.” “A” represents a % viability value of less than 40% (value<40%). “B” represents a % viability value of equal to or more than 40% and less than 60% (40%≤value<60%). “C” represents a % viability value of equal to or more than 60% and less than 90% (60%≤value<90%). “D” represents a % viability value of equal or more than 90% (value≥90%).

[7] = biological target: T3, GSPT1 (Homo sapiens, UniProt P15170+Q96SW2); test: Western blot GSPT1 degradation assay in MV-4-11 cells; type: cell-based; details: 1 μM, MV-4-11 cells, 6-8 hours
T3 construct: whole cell protein extracts were separated on 4-12% SDS-polyacrylamide gels; endogenous in cells; host or cells: MV-4-11
T3 sequence (P15170 whole entry): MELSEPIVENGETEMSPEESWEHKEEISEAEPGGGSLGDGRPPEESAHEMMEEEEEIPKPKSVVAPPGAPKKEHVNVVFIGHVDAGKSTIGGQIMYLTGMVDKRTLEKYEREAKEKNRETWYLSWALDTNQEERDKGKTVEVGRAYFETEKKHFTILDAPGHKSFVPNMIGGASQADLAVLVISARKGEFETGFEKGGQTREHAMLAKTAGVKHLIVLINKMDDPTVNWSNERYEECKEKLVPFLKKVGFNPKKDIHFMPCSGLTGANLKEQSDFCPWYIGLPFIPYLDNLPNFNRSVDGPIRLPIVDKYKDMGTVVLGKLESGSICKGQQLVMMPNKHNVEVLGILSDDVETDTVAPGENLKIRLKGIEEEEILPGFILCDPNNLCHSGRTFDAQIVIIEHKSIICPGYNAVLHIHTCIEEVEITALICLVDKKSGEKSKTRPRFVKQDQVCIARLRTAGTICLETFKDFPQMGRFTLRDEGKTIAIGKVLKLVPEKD
T3 sequence (Q96SW2 whole entry): as the sequence (Q96SW2 whole entry) above
T3 sequence (Q16531 whole entry partner): as the sequence (Q16531 whole entry partner) above
Description: as §1, §2, §3, §4, §5

[8] = test system: MV-4-11 cells; test: Comparative study cell viability, MV-4-11 cells (CTG2, 3 days); type: cell-based; details: relative to Compound 1
Description: (§7) Molm-13 and MV-4-11 cells (both leukemia cell lines) were cultured in RPMI 1640 media supplemented with 10% fetal bovine serum, streptomycin and penicillin, and were plated in white walled 96-well plates at 20,000 cells/well. THLE-2 cells (T-antigen immortalized human liver epithelial cells) were cultured using BEGM Bullet kit (Lonza CC-3170) supplemented with 10% fetal bovine serum, streptomycin and penicillin, and were plated in white walled 96-well plates 5000 cells/well. NHLF (normal human lung fibroblast) cells were cultured in DMEM media supplemented with 10% fetal bovine serum, streptomycin and penicillin, and were plated in white walled 96-well plates at 5000 cells/well. Cells were incubated in DMSO (control) or the indicated compounds for 3 days at 37° C. and 5% CO2. Following the incubation period, 100 μL of CellTiterGlow2 (CTG2) reagent (CellTiter-Glo®2 Luminescent Cell Viability Assay, Promega (Madison, Wis.)) was added to each well. Following a 10 minutes incubation with shaking, luminescence was measured using the Victor Wallac Luminometer or the Envision 2105 multimode plate reader.

[9] = test system: THLE-2 cells; test: Comparative study cell viability, THLE-2 cells (CTG2, 3 days); type: cell-based, human; details: relative to Compound 1
Description: as §7

T1 sequence (P48729 whole entry): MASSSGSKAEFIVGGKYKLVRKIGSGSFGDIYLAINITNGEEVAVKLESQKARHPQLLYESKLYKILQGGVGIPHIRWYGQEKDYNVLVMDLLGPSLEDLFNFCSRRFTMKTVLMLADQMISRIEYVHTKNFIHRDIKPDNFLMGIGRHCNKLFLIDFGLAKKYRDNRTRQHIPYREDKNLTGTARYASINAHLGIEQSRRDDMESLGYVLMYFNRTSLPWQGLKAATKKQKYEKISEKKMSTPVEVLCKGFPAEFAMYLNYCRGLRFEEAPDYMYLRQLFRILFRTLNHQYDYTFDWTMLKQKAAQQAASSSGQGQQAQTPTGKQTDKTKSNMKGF
T1 sequence (Q96SW2 whole entry): as the sequence (Q96SW2 whole entry) above
T1 sequence (Q16531 whole entry partner): as the sequence (Q16531 whole entry partner) above

Compound	CK1α % Degradation at 1 μM [1]	IKAROS % Degradation at 1 μM [2]	fold induction at 1 µM [3]	inhibition at 1 µM [4] [%]	inhibition at 1 µM [5] [%]	viability at 1 µM [6] [%]	GSPT1 % Degradation at 1 μM [7]	IC50 concentration as fold of the IC50 concentration of Compound 1 [8]	IC50 concentration as fold of the IC50 concentration of Compound 1 [9]
Cc1ccc(NCC(=O)NCc2csc3c2CN(C2CCC(=O)NC2=O)C3=O)cc1Cl (stereo not shown) [Compound 5, 2-((3-chloro-4-methylphenyl)amino)-N-((5-(2,6-dioxopiperidin-3-yl)-6-oxo-5,6-dihydro-4H-thieno[2,3-c]pyrrol-3-yl)methyl)acetamide]	D (a % degradation value of equal to or more than 75% (value≥75%))	D (a % degradation value of equal to or more than 75% (value≥75%))	> 3	> 75	> 75	< 40			
Cc1cc(NCC(=O)NCc2scc3c2CN(C2CCC(=O)NC2=O)C3=O)ccc1N(C)C (stereo not shown) [Compound 10, 2-((4-(dimethylamino)-3-methylphenyl)amino)-N-((5-(2,6-dioxopiperidin-3-yl)-4-oxo-5,6-dihydro-4H-thieno[3,4-c]pyrrol-1-yl)methyl)acetamide]	B (a % degradation value of equal to or more than 25% and less than 50% (25%≤value<50%))	A (a % degradation value of less than 25% (value<25%))				> 90	D (a % degradation value of equal to or more than 75% (value≥75%))		
Cc1ccc(NCC(=O)NCc2cccc3c2CN(C2CCC(=O)NC2=O)C3=O)cc1Cl (stereo not shown) [Compound 14, 2-((3-chloro-4-methylphenyl)amino)-N-((2-(2,6-dioxopiperidin-3-yl)-1-oxoisoindolin-4-yl)methyl)acetamide]	C (a % degradation value of equal to or more than 50% and less than 75% (50%≤value<75%))	D (a % degradation value of equal to or more than 75% (value≥75%))	2 to 3	> 75	50 to 75	40 to 60	C (a % degradation value of equal to or more than 50% and less than 75% (50%≤value<75%))		
O=C(CNc1ccccc1)NCc1ccc2c(c1)CN(C1CCC(=O)NC1=O)C2=O (stereo not shown) [Compound 16, N-((2-(2,6-dioxopiperidin-3-yl)-1-oxoisoindolin-5-yl)methyl)-2-(phenylamino)acetamide]						60 to 90	B (a % degradation value of equal to or more than 25% and less than 50% (25%≤value<50%))	over 2 fold	over 3 fold
Cc1ccc(NCC(=O)NCc2ccc3c(c2)CN(C2CCC(=O)NC2=O)C3=O)nc1Cl (stereo not shown) [Compound 20, 2-((6-chloro-5-methylpyridin-2-yl)amino)-N-((2-(2,6-dioxopiperidin-3-yl)-1-oxoisoindolin-5-yl)methyl)acetamide]	B (a % degradation value of equal to or more than 25% and less than 50% (25%≤value<50%))	B (a % degradation value of equal to or more than 25% and less than 50% (25%≤value<50%))		< 30	30 to 50	> 90	B (a % degradation value of equal to or more than 25% and less than 50% (25%≤value<50%))		
Cc1cc(NCC(=O)NCc2ccc3c(c2)CN(C2CCC(=O)NC2=O)C3=O)ccc1N1CCCC1 (stereo not shown) [Compound 21, N-((2-(2,6-dioxopiperidin-3-yl)-1-oxoisoindolin-5-yl)methyl)-2-((3-methyl-4-(pyrrolidin-1-yl)phenyl)amino)acetamide]	A (a % degradation value of less than 25% (value<25%))	C (a % degradation value of equal to or more than 50% and less than 75% (50%≤value<75%))	1 to 2	< 30	30 to 50	< 40	C (a % degradation value of equal to or more than 50% and less than 75% (50%≤value<75%))		
Cc1ccc(NCC(=O)NCc2ccc3c(c2)CN(C2CCC(=O)NC2=O)C3=O)cc1N1CCCC1 (stereo not shown) [Compound 24, N-((2-(2,6-dioxopiperidin-3-yl)-1-oxoisoindolin-5-yl)methyl)-2-((4-methyl-3-(pyrrolidin-1-yl)phenyl)amino)acetamide]	B (a % degradation value of equal to or more than 25% and less than 50% (25%≤value<50%))	D (a % degradation value of equal to or more than 75% (value≥75%))				> 90	D (a % degradation value of equal to or more than 75% (value≥75%))		
Cc1cc(NCC(=O)NCc2ccc3c(c2)CN(C2CCC(=O)NC2=O)C3=O)ccc1N(C)C (stereo not shown) [Compound 25, 2-((4-(dimethylamino)-3-methylphenyl)amino)-N-((2-(2,6-dioxopiperidin-3-yl)-1-oxoisoindolin-5-yl)methyl)acetamide]	B (a % degradation value of equal to or more than 25% and less than 50% (25%≤value<50%))		1 to 2	< 30	30 to 50		C (a % degradation value of equal to or more than 50% and less than 75% (50%≤value<75%))		
